pEC50, pIC50: −log10 of the molar value.
Columns and labels:
p21 (Homo sapiens) = biological target: T1, p21 (Homo sapiens); assay: Effect on p21 induction in HCT116 cells; assay type: cell-based; details: HCT116 colon carcinoma cells, 24 h, p21/GAPDH ratio, percent activation vs internal reference WRN inhibitor; read-out: P21_EC50
T1 construct: p21 in-cell western after 24 h, GAPDH normalised
Procedure: Example 3: Method for Determining Effect on p21 Induction in Cells
The colon carcinoma cell line HCT116 was obtained from ATCC and cultured in growth medium consisting of Mccoy's 5A Medium (Gibco 16600108) supplemented with 10% FBS (Transgene FS201-02) and 100 units/mL penicillin-streptomycin (Gibco 15140122) and maintained at 37° C. under 5% CO2. On the day of seeding, 2,000 cells in 30 μL of culture media were plated per well to Poly-D-Lysine 384 Well Black Clear Plates (Biocoat 356663) and incubated overnight at 37° C. under 5% CO2. The following day, compounds were serially diluted in DMSO for a total of 11 test concentrations. The typical starting concentration of cpds was 10 μM with 2-fold dilutions. Next, 150 nL of diluted compound was added in duplicate to the assay plate, using an Echo 655 (Labcyte). The plate was centrifuged at 500 RPM for 1 min and then incubated at 37° C. under 5% CO2 for 24 h. After 24 h, medium was removed, and cells were fixed by adding 40 μL of 4% paraformaldehyde solution to each well and incubated for 20 min at room temperature. The plate was then washed 4 times with 100 μL per well of wash buffer (PBS with 0.1% Tween-20) using a microplate washer. Next, 30 μL of ice-cold methanol was added to each well and the plate was incubated at −20° C. for 10 min. The plate was washed 4 times with 100 μL per well of wash buffer by a microplate washer, then 30 μL per well of blocking buffer ((Intercept PBS blocking buffer (LI-COR 927-70001) with 0.05% Tween-20)) was added and the plate was incubated at room temperature with shaking for 2h. Next, to each test well, 20 μL of primary antibody solution ((p21 Waf1/CIP (12D1) Rabbit mAb (Cell Signaling Technologies 2947) diluted 1:1000 and GAPDH (D4C6R) Mouse mAb (Cell Signaling Technologies 97166) diluted 1:2000 in blocking buffer)) was added and the plate was placed at 4° C., overnight. The following day, the plate was washed 5 times with 100 μL per well of wash buffer using a microplate washer for 5 min. 20 μL per well of secondary antibody ((IRDye 680CW Goat anti-Mouse IgG (H+L) (LI-COR 926-68070) diluted 1:2000 in Blocking Buffer and IRDye 800CW Goat anti-Rabbit IgG (H+L) (LI-COR 926-32211) diluted 1:2000 in Blocking Buffer)) was then added and the plate was stored for 2 h in the dark at room temperature with shaking. The plate was then washed 4 times with 100 μL per well of wash buffer again using a microplate washer. Finally, the p21 signal and the GAPDH signal were quantified using a LI-COR Odyssey CLx Imager machine reading at 800 nm and 700 nm, respectively. Each plate contained DMSO control (low control) and an internal reference WRN inhibitor (high control) respectively. For quantitation, the 800 nm/700 nm ratio was calculated for each well to give fold p21 induction and then percent activation for each compound well was calculated as follows ((100×(ratio cpd well−ratio low control)/(ratio high control−ratio low control)). EC50 values for each compound was generated after non-linear regression curve fitting using commercially available software.

human Werner helicase = biological target: T2, human Werner helicase (Homo sapiens, UniProt Q14191, L1074F); assay: WRN (BV08) ADP-Glo Assay; assay type: biochemical; details: WRN-BV08 (517-1235 L1074F) 0.15 nM, 0.1 nM DNA duplex, ATP, 15 min preincubation, 60 min at 25° C, pH 7.5; read-out: ADP-Glo_hWRN_IC50
T2 construct: Uniprot Q14191, amino acids 517-1235 with L1074F point mutation; TEV-cleavable 8xHis tag (C, cleaved yes); made in house; host or cells: Sf9 insect cells (baculovirus)
Source text: Example 2: WRN (BV08) ADP-Glo Assay Protocol
Bovine skin gelatin (BSG), dimethyl sulfoxide (DMSO), Pluronic F-127 and tris(2-carboxyethyl)phosphine hydrochloride solution (TCEP) were purchased from Sigma-Aldrich (St. Louis, MO) at the highest level of purity possible. Bicine buffer solution was purchased from Alfa Aesar (Tewksbury, MA) and compound NSC-617145 was purchased from Tocris (Minneapolis, MN). DNA duplex was synthesized at BGI (Shenzhen, China) and was composed of strand 1 with the sequence 5′-[…]-3′ (SEQ ID NO.: 1) and strand 2 with the sequence 5′-[…]-3′ (SEQ ID NO.: 2). DNA strands were annealed by heating to 95° C. for 5 minutes followed by slow cooling to room temperature. Compounds in 100% DMSO (0.1 μl) were spotted into a 384-well white polystyrene Optiplate-384 (Perkin Elmer; Waltham, MA) assay plate using a LabCyte Echo 550 (Agilent; Santa Clara, CA). DMSO (0.1 μl) was added to columns 12, rows A-H and column 24, rows I-P for the maximum signal control. Compound NSC-617145 (0.1 μl) was added to columns 12, rows I-P and 24, rows A-H for the minimum signal control (100% inhibition). Compounds/DMSO were preincubated for 15 minutes at 25° C. with 5 μl 2×WRN (BV08), prepared as described below, in assay buffer containing 20 mM Bicine (pH=7.5), 1 mM MgCl2, 10 mM KCl, 0.1% Pluronic F-127, 0.005% BSG, 1 mM TCEP. The reaction was initiated by the addition of 5 μl 2× substrate mixture in assay buffer and incubated for 60 minutes at 25° C. The final concentrations of the assay components were 0.15 nM WRN, 5 µM ATP, and 0.1 nM DNA duplex. The final DMSO concentration was 1% and the reference compound concentration (NSC-617145) used for the minimal signal control was 20 μM. The reaction was stopped by the addition of the ADP-Glo Kit components (Promega; Madison, WI) as directed and the relative luminescence units (RLU) were read on an Envision 2104 (Perkin Elmer; Waltham, MA).
Where RLU=relative luminescence units, sample=signal in sample well, and MIN and MAX are the respective minimum and maximum signal controls.
Y=Bottom+(Top−Bottom)/(1+(IC50/X)^Hill Slope)
Where top and bottom are normally allowed to float but may be fixed at 100 or 0 respectively in a 3-parameter fit. Y is the % inhibition and X is the compound concentration.
Molecular Biology and virus production. The DNA encoding human Werner helicase (Uniprot Q14191, amino acids 517-1235 with L1074F point mutation) was generated with codon-optimization for E. coli expression and subcloned into the pFastBac vector with a TEV cleavable 8×His tag (WRN—BV08). The baculovirus from the expression plasmid WRN—BV08 was generated from transfection and amplification following the manufacturer's instructions.
Sf9 cells grown in SF900II media were infected with 1:200 WRN—BV08 P2 virus and incubated for protein expression for 72 h at 27° C. The WRN protein was purified using the following protocol. The cell pellets were thawed and resuspended in buffer A (50 mM Tris, pH 7.5, 500 mM NaCl, 1 mM TCEP, 10% Glycerol) supplemented with 0.5% CHAPS, 1 mM [COMPOUND LEFT OUT], 1 μg/ml Leupeptin, 1 μg/ml Pepstatin, and the Pierce Universal Nuclease and cocktail tablet. Cleared lysates were loaded onto a Ni Sepharose™ excel column and washed with buffer A and bound protein was eluted with buffer A supplemented with 300 mM imidazole. The eluted protein was dialyzed against buffer A and digested by His-tagged TEV (1:5 ratio) overnight at 4° C. […]

T2 sequence (Q14191 with tags, fused parts or gaps L1074F): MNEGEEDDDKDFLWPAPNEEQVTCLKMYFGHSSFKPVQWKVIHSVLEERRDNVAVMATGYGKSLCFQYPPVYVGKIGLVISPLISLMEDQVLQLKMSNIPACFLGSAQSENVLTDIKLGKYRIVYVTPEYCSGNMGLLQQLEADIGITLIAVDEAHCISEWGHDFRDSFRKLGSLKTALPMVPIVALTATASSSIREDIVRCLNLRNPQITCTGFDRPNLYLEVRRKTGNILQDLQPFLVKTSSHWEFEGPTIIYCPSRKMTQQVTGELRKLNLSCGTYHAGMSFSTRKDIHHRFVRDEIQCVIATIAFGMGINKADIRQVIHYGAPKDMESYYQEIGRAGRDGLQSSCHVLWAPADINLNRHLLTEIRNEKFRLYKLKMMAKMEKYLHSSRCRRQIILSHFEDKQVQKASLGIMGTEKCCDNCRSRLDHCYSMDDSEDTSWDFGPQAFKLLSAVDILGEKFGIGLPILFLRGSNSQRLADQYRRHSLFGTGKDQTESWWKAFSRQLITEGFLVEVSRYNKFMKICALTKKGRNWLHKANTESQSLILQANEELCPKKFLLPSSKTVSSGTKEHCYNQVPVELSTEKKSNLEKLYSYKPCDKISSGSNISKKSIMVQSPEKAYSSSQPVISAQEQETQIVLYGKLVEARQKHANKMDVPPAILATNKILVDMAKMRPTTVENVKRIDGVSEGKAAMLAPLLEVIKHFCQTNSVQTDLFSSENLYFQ
T1 sequence (Q14191 whole entry): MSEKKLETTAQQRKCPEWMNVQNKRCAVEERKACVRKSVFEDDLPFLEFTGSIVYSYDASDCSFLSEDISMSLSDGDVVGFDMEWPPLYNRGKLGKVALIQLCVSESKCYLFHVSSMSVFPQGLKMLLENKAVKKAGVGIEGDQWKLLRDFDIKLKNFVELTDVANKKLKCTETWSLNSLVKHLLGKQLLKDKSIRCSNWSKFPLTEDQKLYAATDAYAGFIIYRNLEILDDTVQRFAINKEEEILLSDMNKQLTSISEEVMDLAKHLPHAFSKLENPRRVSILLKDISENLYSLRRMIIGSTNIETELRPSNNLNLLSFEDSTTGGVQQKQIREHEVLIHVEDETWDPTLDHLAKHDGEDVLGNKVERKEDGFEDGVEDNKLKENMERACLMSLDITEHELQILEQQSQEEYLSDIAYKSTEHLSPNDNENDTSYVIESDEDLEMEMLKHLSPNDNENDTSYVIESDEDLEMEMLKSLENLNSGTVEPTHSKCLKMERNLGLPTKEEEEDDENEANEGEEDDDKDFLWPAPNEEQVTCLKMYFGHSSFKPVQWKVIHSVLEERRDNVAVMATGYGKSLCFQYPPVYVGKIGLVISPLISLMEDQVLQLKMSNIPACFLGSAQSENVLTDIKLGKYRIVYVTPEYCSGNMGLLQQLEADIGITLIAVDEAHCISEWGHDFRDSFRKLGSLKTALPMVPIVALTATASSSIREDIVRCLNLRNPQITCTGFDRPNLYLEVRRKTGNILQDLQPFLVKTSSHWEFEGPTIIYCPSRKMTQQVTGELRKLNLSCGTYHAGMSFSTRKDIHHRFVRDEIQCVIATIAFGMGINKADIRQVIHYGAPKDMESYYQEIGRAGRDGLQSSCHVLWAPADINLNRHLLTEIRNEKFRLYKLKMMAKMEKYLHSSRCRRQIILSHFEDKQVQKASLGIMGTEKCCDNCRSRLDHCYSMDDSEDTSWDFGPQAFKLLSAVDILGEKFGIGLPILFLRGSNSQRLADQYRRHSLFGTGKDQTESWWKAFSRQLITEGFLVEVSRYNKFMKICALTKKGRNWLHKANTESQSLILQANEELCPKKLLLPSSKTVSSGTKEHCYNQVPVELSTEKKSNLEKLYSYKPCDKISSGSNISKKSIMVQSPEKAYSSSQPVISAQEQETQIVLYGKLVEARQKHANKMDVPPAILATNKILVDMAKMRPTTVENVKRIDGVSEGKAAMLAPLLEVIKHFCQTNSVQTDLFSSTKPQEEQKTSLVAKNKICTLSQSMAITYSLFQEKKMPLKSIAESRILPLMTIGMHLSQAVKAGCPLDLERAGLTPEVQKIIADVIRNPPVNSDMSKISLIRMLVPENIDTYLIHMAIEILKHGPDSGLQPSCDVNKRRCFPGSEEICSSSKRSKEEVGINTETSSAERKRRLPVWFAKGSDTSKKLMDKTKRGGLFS

Row | SMILES | pEC50 (p21 (Homo sapiens)) | pIC50 (human Werner helicase)
1 | CCc1c(N2CCN(C(=O)c3ncnc(C)c3O)CC2)c(=O)c2nc(-c3ccnc(OC)c3)oc2n1CC(=O)NC12CC(C(F)(F)F)(C1)C2 [I-4, 2-(5-ethyl-6-(4-(5-hydroxy-6-methylpyrimidine-4-carbonyl)piperazin-1-yl)-2-(2-methoxypyridin-4-yl)-7-oxooxazolo[5,4-b]pyridin-4(7H)-y1)-N-(3-(trifluoromethyl)bicyclo[1.1.1]pentan-1-yl)acetamide] | < 5.30 | 7.30 to 8.30
2 | CCc1c(N2CCN(C(=O)c3ncnc(C)c3O)CC2)c(=O)c2oc(-c3ccnc(OC)c3)nc2n1CC(=O)NC12CC(C(F)(F)F)(C1)C2 [1-3] |  | 7.30 to 8.30
3 | CCc1c(N2CCN(C(=O)c3ncnc(C)c3O)CC2)c(=O)c2nc(-c3ccnc(OC)c3)oc2n1CC(=O)Nc1ccc(C(F)(F)F)cc1Cl [I-2, N-(2-chloro-4-(trifluoromethyl)phenyl)-2-(5-ethyl-6-(4-(5-hydroxy-6-methylpyrimidine-4-carbonyl)piperazin-1-yl)-2-(2-methoxypyridin-4-yl)-7-oxooxazolo[5,4-b]pyridin-4(7H)-yl)acetamide] | ≥ 6.30 | 
4 | CCc1c(N2CCN(C(=O)c3ncnc(C)c3O)CC2)c(=O)c2oc(-c3ccnc(OC)c3)nc2n1CC(=O)NC12CC(C(F)(F)F)(C1)C2 [I-3, 2-(5-ethyl-6-(4-(5-hydroxy-6-methylpyrimidine-4-carbonyl)piperazin-1-yl)-2-(2-methoxypyridin-4-yl)-7-oxooxazolo[4,5-b]pyridin-4(7H)-yl)-N-(3-(trifluoromethyl)bicyclo[1.1.1]pentan-1-yl)acetamide] | 5.30 to 5.70 | 

Second part, the molecule after the results:

Row | pEC50 (p21 (Homo sapiens)) | pIC50 (human Werner helicase) | SMILES
5 | ≥ 6.30 | ≥ 8.30 | CCc1c(N2CCN(C(=O)c3ncnc(C)c3O)CC2)c(=O)c2oc(-c3ccnc(OC)c3)nc2n1CC(=O)Nc1ccc(C(F)(F)F)cc1Cl [I-1, N-(2-chloro-4-(trifluoromethyl)phenyl)-2-(5-ethyl-6-(4-(5-hydroxy-6-methylpyrimidine-4-carbonyl)piperazin-1-y1)-2-(2-methoxypyridin-4-yl)-7-oxooxazolo[4,5-b]pyridin-4(7H)-yl)acetamide]
6 |  | ≥ 8.30 | CCc1c(N2CCN(C(=O)c3ncnc(C)c3O)CC2)c(=O)c2nc(-c3ccnc(OC)c3)oc2n1CC(=O)Nc1ccc(C(F)(F)F)cc1Cl [1-2]
7 | ≥ 6.30 | ≥ 8.30 | CCc1c(N2CCN(C(=O)c3c(O)ccc4ncoc34)CC2)c(=O)c2oc(-c3ccnc(OC)c3)nc2n1CC(=O)Nc1ccc(C(F)(F)F)cc1Cl [I-5, N-(2-chloro-4-(trifluoromethyl)phenyl)-2-(5-ethyl-6-(4-(6-hydroxybenzo[d]oxazole-7-carbonyl)piperazin-1-y1)-2-(2-methoxypyridin-4-yl)-7-oxooxazolo[4,5-b]pyridin-4(7H)-y1)acetamide]

From patent publication US20260308173A1, “OXAZOLOPYRIDIN-7(4H)-ONE WRN INHIBITORS” (NIMBUS WADJET, INC., priority 2023, published 2026)
